The record followed here is PubChem BioAssay AID504780 (National Center for Advancing Translational Sciences (NCATS), 2011).

In brackets after ≈: the same amount, converted by molar mass.

A word on the solubility: it is the concentration that dissolves in the medium under given conditions.

This series has as its system kinetic aqueous solubility, PBS pH 7.4, LC-UV/MS. The experiment in a line: Identifying a Potential Treatment of Ataxia-Telangiectasia: Solubility Profiling. The conditions noted are these: stronger effect = higher value. From the text: Ataxia-telangiectasia (A-T) is a devastating and progressive disease for which, there is no cure. Although A-T is a multisystem disease, it is stereotyped characterized by its neurological symptoms such as truncal ataxia, due to cerebellar cortical degeneration of the Purkinje and granule cells. The underlying genetic cause of A-T is null mutations in the ATM (A-T mutated) gene. ATM is a nuclear serine/threonine kinase that functions as a master regulator of the cellular responses to double strand breaks (DSBs) in the DNA. Upon activation by DSBs, ATM phosphorylates a plethora of downstream targets, including KAP-1 on […]. KAP-1 phosphorylation occurs shortly in response to DSBs and mediates global chromatin relaxation, which facilitates DSB repair. The assay provider and the NCGC have developed assays to discover small molecules that compensate for the loss of ATM and have discovered a probe. The resulting probe is further characterized in several ADME assays. This bioassay provides profiling data on aqueous kinetic solubility (PBS @ pH 7.4) of one of the lead compounds developed in the ATM project. NIH Chemical Genomics Center [NCGC] NIH Molecular Libraries Probe Centers Network [MLPCN] MLPCN Grant: MH089030-01 Assay Submitter (PI): Wei Zheng and Yosef Shiloh
1. […] Concentration of the supernatant was determined by LC-UV or LC-MS/MS

For the compound `CC(=O)c1c(O)c(C)c(O)c(Cc2c(O)c3c(c(C(=O)/C=C/c4ccccc4)c2O)OC(C)(C)C=C3)c1O`, the solubility was 250 µM (≈ 129 µg/mL).
